In patent US20140051685A1, “THERAPEUTIC TREATMENT FOR METABOLIC SYNDROME, TYPE 2 DIABETES, OBESITY OR PREDIABETES” (priority 2010, published 2014):

Columns and labels:
Format in all cases: in vivo
[1] = system: obese, diabetic female (ob/ob) mice; assay: GBR 12909 once daily for 14 days in obese, diabetic ob/ob mice; conditions: 30 mg/kg once daily
Method: GBR 12909 (1-(2-[bis(4-Fluorophenyl)methoxy]ethyl)-4-(3-phenylpropyl)piperazine dihydrochloride) is a specific dopamine reuptake inhibitor. Systemic administration of GBR 12909 can increase the dopaminergic to noradrenergic neuronal activity in the central nervous system. A study was conducted to determine the effects of GBR 12909 upon blood glucose and plasma free fatty acid levels in obese, diabetic mice (ob/ob strain). The ob/ob mouse is hyperphagic, obese, insulin resistant, diabetic and dyslipidemic due to the absence of functional leptin as a result of a mutation in this gene. Starvation or calorie restriction of these mice leads to increases in plasma free fatty acid levels that can function over the long term to worsen diabetes.
Different groups of obese, diabetic female (ob/ob) mice (body weight of approximately 33 g) maintained on 12 hour daily photoperiods, housed one per cage and allowed to feed ad libitum were randomized to once daily treatment with either a specific dopamine reuptake inhibitor, GBR 12909 at a dose of 30 mg/kg body weight (n=5-7) or vehicle (control group; n=5-7) for a 14 day period. On the fifteenth day of the study and approximately 24 hours after the final treatment animals were sacrificed and blood samples were obtained for the analyses of blood glucose and plasma free fatty acid and triglyceride levels.

[2] = system: female mice fed a high fat diet for 20 weeks; assay: GBR 12909 plus fusaric acid in mice fed a high fat diet; conditions: for body weight (normalization): 2 weeks of treatment, normal weight for age matched controls=28 grams, FIG. 15; for plasma insulin levels compared to lean, insulin sensitive, non-diabetic mice: FIG. 12
Method: Female mice at 4 weeks of age were fed a high fat diet for 20 weeks to induce diabetes and insulin resistance and continued on such diet while treated for 14 days with either GBR 12909 (10 mg/kg), FA (15 mg/kg), GBR 12909 (10 mg/kg) plus FA (15 mg/kg), or vehicle and sacrificed after 14 days of treatment for the analyses of body fat, blood glucose, plasma insulin, and plasma nitric oxide levels. […] Only the GBR/FA group normalized plasma insulin levels. […] This effect was not observed with either GBR or FA treatments alone.

[3] = system: male mice fed a high fat diet; assay: GBR versus bupropion in mice fed a high fat diet
Method: The effect of increasing central dopamine neuronal activity versus increasing central dopamine plus norepinephirne neuronal activity on body fat, blood glucose, plasma insulin, and insulin sensitivity was studied in male mice fed a high fat diet from 4 weeks of age until 24 weeks of age. These mice were maintained on this high fat diet while treated with either GBR (20 mg/kg) (a selective dopamine reuptake inhibitor) or bupropion (20 mg/kg) (a dopamine and norepinpehrine reuptake inhibitor) at doses that approximate their 50% maximal effective dose for these functions in vivo in rodents.

[4] = system: obese, diabetic female ob/ob mice with mild diabetes; assay: GBR 12909 and clonidine, interactive effects on blood glucose in ob/ob mice; conditions: GBR 12909 about 20 mg/kg, clonidine about 0.1 mg/kg, alone or together, once daily 14 days, controls 202±41
Method: GBR 12909 is a specific dopamine reuptake inhibitor. Its use can increase the dopaminergic to noradrenergic neuronal activity in the central nervous system. However, by combining GBR 12909 with clonidine, a noradrenergic alpha 2 receptor agonist with preferential affinity for presynaptic alpha 2 sites, it is possible to further increase the dopamine to noradrenaline neuronal activity ratio in the central nervous system. A study was conducted to determine the interactive effects of GBR 12909 and clonidine on blood glucose level in ob/ob mice.
Obese, diabetic female ob/ob mice (body weight of approximately 28 g) with mild diabetes were maintained on 14 hour daily photoperiods, housed one per cage and allowed to feed ad libitum. Different groups of these animals were randomized to once daily treatment with either a specific dopamine reuptake inhibitor, GBR 12909 at an approximate dose of 20 mg/kg body weight (n=4), or clonidine at an approximate dose of 0.1 mg/kg (n=5), these same dosages of GBR 12909 plus clonidine (n=3), or vehicle (control group; n=5-7) for a 14 day period. On the fifteenth day of the study and approximately 24 hours after the final treatment animals were sacrificed and blood samples were obtained for the analyses of blood glucose levels.

[5] = system: female obese diabetic mice (ob/ob strain); assay: Bupropion plus fusaric acid in ob/ob mice; conditions: bupropion 40 mg/kg, FA 10 mg/kg, 14 days, relative to control, FIG. 9
Method: Female obese diabetic mice (ob/ob strain) at 6 weeks of age were fed standard rodent chow and different groups of animals (n=5-7/group) were treated with bupropion (40 mg/kg), FA (10 mg/kg), bupropion (40 mg/kg) plus FA (10 mg/kg), or vehicle for 14 days and then sacrificed for the analyses of blood glucose and body fat store level.

[6] = system: obese, diabetic female ob/ob mice; assay: Fusaric acid plus SKF 38393 in ob/ob mice; conditions: fusaric acid 15 mg/kg, SKF 38393 10 mg/kg
Method: Fusaric acid is a dopamine beta hydroxylase inhibitor that reduces noradrenaline synthesis in noradrenergic neurons. It is not present in dopaminergic neurons and thus exerts no such effect there. SKF38393 is a post-synaptic dopamine D1 receptor agonist with no marked influence on noradrenergic neurons. A study was conducted to determine the interactive effects of fusaric acid plus SKF 38393 on body fat store levels, and blood glucose and plasma triglyceride levels in ob/ob mice. The ob/ob mouse is hyperphagic, obese, insulin resistant, diabeteic and dyslipidemic due to the absence of functional leptin as a result of a mutation in this gene.
Obese, diabetic female ob/ob mice (body weight of approximately 33 g) maintained on 14 hour daily photoperiods, housed one per cage and allowed to feed ad libitum were randomized to once daily treatment with either fusaric acid (15 mg/kg; n=6-8), SKF 38393 (10 mg/kg; n=6-8), both fusaric acid (15 mg/kg) and SKF 38393 (10 mg/kg) (n=6-8), or vehicle (control group; n=6-8) for a 14 day period. On the fifteenth day of the study and approximately 24 hours after the final treatment animals were sacrificed and blood samples were obtained for the analyses of blood glucose, plasma free fatty acid and triglyceride levels. Relative to controls, fusaric acid raised blood glucose from 380±30 mg/dl to 430±30 mg/dl and SKF 38393 reduced blood glucose to 290±55 mg/dl. However, fusaric acid plus SKF 38393 reduced blood glucose to 180±20 mg/dl. […] Neither fusaric acid nor SKF 38393 had any effect on retroperitoneal fat pad weight (735±43 mg and 735±50 mg, respectively versus control value of 727±25 mg) however, the combination of fusaric acid plus SKF 38393 reduced retroperitoneal fat pad weight to 680±25 mg.

[7] = system: high fat fed, hypertensive SHR rats; assay: Quinelorane plus fusaric acid in high fat fed, hypertensive SHR rats; conditions: SHR rats on high fat diet
Method: Male SHR rats were maintained on 14 hour daily photoperiods and fed a high fat diet (60% of energy from fat; 5.24 kcal/gram weight) for 3 weeks and then divided into different groups and treated with either quinelorane (Q; a dopamine D2/D3 mixed receptor agonist) (0.075 mg/kg), fusaric acid (FA; a dopamine beta hydroxylase inhibitor) (12.5 mg/kg), quinelorane (0.075 mg/kg) plus FA (Q/FA) (12.5 mg/kg), or vehicle at 13 hours after light onset for 17 days. The doses of Q and FA were set at less than half maximal to effect central dopamine receptor binding functions and dopamine beta hydroxylase activity, respectively. […] Blood pressure measurements were taken at 14 days of treatment and animals were sacrificed at 18 days of treatment for analyses of body fat and humoral factors and metabolites. […] Respecting blood glucose, although both Q and FA reduced glucose level relative to vehicle, only the Q/FA regimen normalized blood glucose in these animals relative to vehicle (FIG. 6).

[8] = system: female ob/ob obese diabetic mice; assay: Bromocriptine plus GBR 12909 in ob/ob mice; conditions: BC 10 mg/kg, GBR 12909 20 mg/kg, daily 14 days, relative to vehicle, FIG. 10
Method: The effects of adding GBR (a selective dopamine reuptake inhibitor) to bromocriptine (a dopamine D2 receptor agonist that can reduce central norepinephrine neuronal activity) in an effort to circumvent the impact of the D2 receptor agonist effect to reduce endogenous dopamine and to therefore improve metabolic disorders was examined in ob/ob mice treated with either vehicle, bromocriptine (BC) (10 mg/kg), GBR 12909 (20 mg/kg) or bromocriptine (10 mg/kg) plus GBR 12909 (20 mg/kg). Female ob/ob obese diabetic mice were fed standard chow and different groups of animals (n=5-7 group) were treated daily for 14 days with bromocriptine (to reduce norepinephrine neuronal activity) (10 mg/kg), GBR 12909 (to increase dopaminergic neuronal activity) (20 mg/kg) or with bromocriptine (10 mg/kg) plus GBR 12909 (20 mg/kg), or vehicle. […] BC had no effect on blood glucose level.

[9] = system: mice fed a high fat diet for 20 weeks; assay: Bromocriptine plus GBR 12909 in mice fed a high fat diet; conditions: BC 5 mg/kg, GBR 12909 5 mg/kg
Method: The effects of adding GBR (a selective dopamine reuptake inhibitor) to bromocriptine (a dopamine D2 receptor agonist that can reduce central norepinephrine neuronal activity) in an effort to circumvent the impact of the D2 receptor agonist effect to reduce endogenous dopamine and to therefore improve metabolic disorders was examined in mice fed a high fat diet for 20 weeks and then treated with either vehicle, bromocriptine (BC) (5 mg/kg), GBR 12909 (5 mg/kg) or bromocriptine (5 mg/kg) plus GBR 12909 (5 mg/kg). […] Again, increasing central dopaminergic neuronal activity and decreasing central norepinephrine neuronal activity simultaneously produces synergistic reductions in metabolic disorders. […] BC alone had no effect on plasma insulin level (FIG. 21).

[10] = system: female C57 Black mice fed a high simple sugar/moderate fat diet (western diet); assay: Body fat in C57 Black mice fed a western diet (GBR, FA, clonidine and combinations); conditions: mice on western diet; GBR 25 mg/kg, FA 10 mg/kg, clonidine 0.075 mg/kg; 14 days; relative to vehicle and BC/SKF groups; FIG. 7
Method: Female C57 Black mice were maintained on a 12 hour daily photoperiod and fed a high simple sugar/moderate fat diet (western diet) for several weeks to induce obesity and then different groups of animals (n =5-8/group) were treated with either GBR 12909 (25 mg/kg), FA (10 mg/kg), clonidine (0.075 mg/kg), GBR (25 mg/kg) plus FA (10 mg/kg), GBR (25 mg/kg) plus clonidine (0.075 mg/kg), bromocriptine (10 mg/kg) plus SKF38393 (10 mg/kg), or vehicle and sacrificed after 14 days of treatment to analyze body fat store levels.

[11] = GBR 12909 10 mg/kg, FA 15 mg/kg, 14 days

## Cl.Cl.Fc1ccc(C(OCCN2CCN(CCCc3ccccc3)CC2)c2ccc(F)cc2)cc1 [GBR 12909, 1-(2-[bis(4-Fluorophenyl)methoxy]ethyl)-4-(3-phenylpropyl)piperazine dihydrochloride]
[1]
  reduction of plasma triglyceride level relative to controls: approximately 32%
[1]; about 24 hours after final treatment, controls 455±50
  blood glucose: 145 ± 25 mg/dL
[1]; controls 42±2
  final body weight: 28 ± 0.5 g
[1]; controls 780±40
  plasma free fatty acid levels: 450 ± 20 µM
[2]
  body weight (normalization): not observed
[2]; GBR 12909 10 mg/kg, FA 15 mg/kg, 14 days, FIG. 11
  blood glucose level: no significant effect
[2]; [11]
  plasma insulin levels compared to lean, insulin sensitive, non-diabetic mice: significantly higher
[3]; 20 mg/kg each
  reducing plasma insulin, compared with bupropion at equal dose: much more effective
[3]; GBR 20 mg/kg, compared to vehicle and Bupropion (20 mg/kg) groups, FIG. 19
  HOMA-IR values: significantly reduced
[3]; GBR 20 mg/kg, compared to vehicle and Bupropion (20 mg/kg) treatment, FIG. 17
  body fat (intraabdominal fat pad): significantly reduced
[3]; GBR 20 mg/kg, relative to vehicle and Bupropion (20 mg/kg) groups, FIG. 18
  blood glucose: significantly reduced
[4]
  blood glucose: 221 ± 31 mg/dL

## CCCCc1ccc(C(=O)O)nc1 [fusaric acid, 5-butyl-2-pyridinecarboxylic acid]
[2]
  body weight (normalization): not observed
[2]; [11]
  plasma insulin levels compared to lean, insulin sensitive, non-diabetic mice: significantly higher
[5]
  blood glucose: no significant effect
[6]; 14 days, control value 727±25
  retroperitoneal fat pad weight: 735 ± 43 mg
[6]; 14 days, controls 155±15
  plasma triglyceride level: 170 ± 27 mg/dL
[6]; alone or both, once daily 14 days, controls 380±30
  blood glucose: 430 ± 30 mg/dL
[7]; Q 0.075 mg/kg, FA 12.5 mg/kg, 17 days, at 13 hours after light onset, FIGS. 1 and 2
  change from baseline body weight (weight loss): modest if any effects
[7]; relative to vehicle, 18 days of treatment
  plasma C-reactive protein (CRP) level: no significant effect
[7]; relative to vehicle, FIG. 6
  blood glucose level: reduced

## CC(C)C[C@H]1C(=O)N2CCC[C@H]2[C@]2(O)O[C@](NC(=O)[C@@H]3C=C4c5cccc6[nH]c(Br)c(c56)C[C@H]4N(C)C3)(C(C)C)C(=O)N12 [bromocriptine]
[8]
  blood glucose level: no effect
[9]; FIG. 21
  plasma insulin level: no effect
[9]; FIG. 22
  HOMA-IR (insulin resistance): no significant effect

## Clc1cccc(Cl)c1NC1=NCCN1 [clonidine, 2-(2,6-dichloroanilino)-2-imidazoline]
[10]
  body fat store level (intraabdominal fat pad): no effect
[4]
  blood glucose: 250 ± 35 mg/dL
